Like-named read-outs stand apart in the source and are kept apart here. Values belong to the molecule of their own block, whether it stands above or below them.
Legend:
[1] = test system: PGE2 synthesis in injured bovine cartilage explants; assay: Drop tower model: PGE2 synthesis in injured cartilage explants; assay type: cell-based; conditions: for inhibition at 1 µM / inhibition at 10 µM: Bos taurus, injured cartilage explants; for effect on PGE2 synthesis (in words): drop tower model, cocktail of cytokines
Procedure: (§1) In the second method, the explants were cultured at 37° C., 5% CO2 either in stimulated or non-stimulated conditioned medium as described above or in defined medium containing DMEM supplemented with 1% FCS, 1× insulin-transferrin-sodium selenite media supplement and Antibiotics-Antimycotics in the presence or absence of a cocktail of cytokines containing 10 ng/ml of IL-1β, 100 ng/ml of TNFα and 5 ng/ml of IFN-γ. The compounds were solubilized in H2O, Ethanol or DMSO (10^−2 M) according to suppliers' instructions and further diluted with either conditioned medium stimulated with or without LPS to the required concentrations. DMSO concentrations in the culture media never exceeded 1%. This concentration of DMSO has no effect on cartilage proteoglycan metabolism in response to cytokines. The injured and noninjured cartilage explants were treated with compound-containing medium for three to five days. The specimens were first treated with compounds at desired concentrations at 37° C. for one hour and then incubated for three to five days in the absence or presence of the cocktail of cytokines. At the end of the incubation, media and cartilage samples were harvested and frozen for further analysis.
PGE2 was measured with STAT-Prostaglandin E2 EIA ELISA kit (Cayman Biochemicals), as described in Example III above. The antibody-PGE2 complex binds to a goat polyclonal anti-mouse IgG that has been previously attached to the well. After washing to remove any unbound reagents, para-nitrophenyl phosphate (pNPP) was added to the well. The product of this enzymatic reaction absorbs strongly at 412 nm. Because of the large range in response to IL-1β and other cytokines, PGE2 values were converted to log scale prior to doing t-tests.

[2] = test system: NO production in injured bovine cartilage explants; assay: Drop tower model: NO production in injured cartilage explants; assay type: cell-based; conditions: for inhibition at 10 µM: Bos taurus, injured cartilage explants; for effect on NO production (in words): drop tower model, cocktail of cytokines
Procedure: as §1
Nitrate/Nitrite was measured using the Griess reaction (Green L. C. et al., “Analysis of Nitrate, Nitrite, and [15N]nitrate in Biological Fluids,” Anal. Biochem. 126: 131-138 (1982)) with a Nitrate/Nitrite Colorimetric Assay Kit (Cayman Chemicals), as described in Example III above.

[3] = test system: injured bovine cartilage explants
From the text: Bovine articular cartilage was obtained from the knee joints of adult, eighteen to twenty-four month old animals and processed within twenty-four hours after sacrifice. […] Care was taken to consistently prepare the same thickness of bone layer. The cartilage-on-bone specimens were subjected to an impact. […] After each impact, the cartilage area with a visible indent of ˜0.5-1 mm in the center was punched out with a 3 mm diameter puncher and immediately soaked in PBS with 1× Antibiotic-Antimycotic. Throughout the impact procedure and preparation of specimens, the cartilage was kept moist using PBS to prevent tissue dehydration. The cartilage discs were sterilized through 3× one hour wash in PBS with 10× Antibiotic-Antimycotic followed by 1×0.5 hour wash in PBS with 1× Antibiotic-Antimycotic. After wash, the specimens were incubated with conditioned medium harvested from peripheral blood mononuclear cells (PBMC) stimulated with or without LPS and at the same time, were treated with or without compounds for five days at 37° C., 5% CO2. Culture medium was collected for GAG release, NO and PGE2 assays, and assessment for cytotoxicity.
Cell death was assessed by measuring the amount of lactate dehydrogenase (LDH) in the culture supernatant. 10-20 μl of culture medium was incubated with the reaction mixture from the Cytotoxicity Detection Kit (LDH, Roche), as described in Example III above. The amount of formazan formed was measured at 500 nm, which was proportional to the number of dead cells. Since no purified LDH was available for a standard curve at each measurement, an LDH level for 100% dead cells was measured in each experiment. The lysate for the dead cells was prepared as follows: Chondrocytes were enzymatically isolated as described earlier and about 0.1 million cells that were equivalent to the number of cells contained in a 3-mm punch of fresh cartilage explant were lysed in 1 ml of PBS with 1% Triton-100. Approximately 10-20 μl of the lysate was used in the assay as killed cell control. […]

p38α MAP kinase (h-p38α) = p38α MAP kinase (h-p38α) (Homo sapiens, UniProt Q16539); assay: p38α MAP kinase inhibition (direct enzyme assay); assay type: biochemical; conditions: read-out: inhibitor of p38a MAP kinase, IC50
Chain of p38α MAP kinase (h-p38α) (Q16539 whole entry): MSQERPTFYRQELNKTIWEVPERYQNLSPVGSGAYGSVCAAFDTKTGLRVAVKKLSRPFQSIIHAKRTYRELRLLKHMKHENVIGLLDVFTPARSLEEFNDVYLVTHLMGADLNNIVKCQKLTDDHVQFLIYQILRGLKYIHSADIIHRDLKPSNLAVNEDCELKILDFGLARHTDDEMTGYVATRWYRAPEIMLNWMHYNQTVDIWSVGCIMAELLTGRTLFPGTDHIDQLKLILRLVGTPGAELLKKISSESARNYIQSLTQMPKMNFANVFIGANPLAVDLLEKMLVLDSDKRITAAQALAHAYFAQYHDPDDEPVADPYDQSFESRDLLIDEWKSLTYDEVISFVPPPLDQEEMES

[4] = test system: aggrecan and collagen type 2 mRNA in bovine AF and NP cells; assay: 3D in vitro disc cell model: Taqman gene expression; assay type: cell-based; conditions: 10 ng/ml IL-1β; inhibitor 1 μM, rhGDF-5 200 ng/ml
From the text: Three-dimensional in vitro annulus fibrosis (AF) and nucleus pulposus (NP) models were established to investigate proteoglycan modulation and changes in gene expression in response to inflammatory cytokines such as interleukin-1 (e.g., IL-1β) and potential therapeutic agents such as growth and differentiation factor (GDF-5), and p38 MAP kinase inhibitors. AF and NP cells from bovine caudal discs were isolated by enzymatic digestion and seeded (2×10^6 cells/cm^2) onto Millipore CM filters coated with Collagen Type II and cultured in DMEM/20% heat-inactivated FBS, 100 ug/ml ascorbic acid and 5 ng/ml TGFβ1. […] Results were evaluated by histology (Tol. Blue staining was used to observe matrix production). Dimethylmethylene blue (DMMB) was used to detect sulphated glycosaminoglycans in a GAG/DNA assay. Taqman analysis was performed on aggrecans (AGG), collagen type 1 (col-1), collagen type 2 (col-2), and MMP 3, MMP 9 and MMP 13. In FIGS. 19A-C and 20A-C, annulus fibrosus and nucleus pulposus cells from bovine caudal discs were isolated by enzymatic digestion and seeded (2×10^6 cells/cm2) onto Millipore CM filters coated with Collagen Type II and cultured in DMEM/20% heat-inactivated FBS/100 ug/ml ascorbic acid and 5 ng/ml TGF-β1.

COX1 = COX1 (Homo sapiens, UniProt P23219); assay: COX1 inhibition; assay type: biochemical; conditions: read-out: inhibitor of COX1, IC50
Chain of COX1 (P23219 24-599): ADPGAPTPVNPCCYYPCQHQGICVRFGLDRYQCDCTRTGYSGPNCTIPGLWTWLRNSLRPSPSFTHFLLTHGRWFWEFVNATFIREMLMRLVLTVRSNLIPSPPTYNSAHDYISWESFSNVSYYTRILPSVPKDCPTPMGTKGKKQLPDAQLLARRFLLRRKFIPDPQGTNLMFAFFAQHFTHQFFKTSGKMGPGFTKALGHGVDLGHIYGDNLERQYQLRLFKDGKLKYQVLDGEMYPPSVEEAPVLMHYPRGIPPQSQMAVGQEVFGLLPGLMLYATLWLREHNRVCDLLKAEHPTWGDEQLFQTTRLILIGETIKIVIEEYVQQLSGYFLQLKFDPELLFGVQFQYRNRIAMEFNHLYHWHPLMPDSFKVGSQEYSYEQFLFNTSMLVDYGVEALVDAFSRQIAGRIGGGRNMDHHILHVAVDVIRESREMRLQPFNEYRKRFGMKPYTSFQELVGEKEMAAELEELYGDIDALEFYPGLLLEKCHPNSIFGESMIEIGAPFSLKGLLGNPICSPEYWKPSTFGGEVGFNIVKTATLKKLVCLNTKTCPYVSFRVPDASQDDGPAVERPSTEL

p38a MAP kinase = p38a MAP kinase (Homo sapiens, UniProt Q16539); assay: Binding to p38a MAP kinase; conditions: read-out: binds p38a MAP kinase, Kd
Chain of p38a MAP kinase (Q16539 whole entry): as the sequence (Q16539 whole entry) above

[5] = test system: LPS-induced TNF in human peripheral blood mononuclear cells (hPBMC); assay: LPS-induced TNF in hPBMC; assay type: cell-based; conditions: read-out: inhibitor of LPS-induced TNF hPBMC, IC50
COX2 = molecular target: T1, COX2 (Homo sapiens, UniProt P35354); assay: COX2 inhibition; assay type: biochemical; conditions: read-out: inhibitor of COX2, IC50
T1 sequence (P35354 18-604): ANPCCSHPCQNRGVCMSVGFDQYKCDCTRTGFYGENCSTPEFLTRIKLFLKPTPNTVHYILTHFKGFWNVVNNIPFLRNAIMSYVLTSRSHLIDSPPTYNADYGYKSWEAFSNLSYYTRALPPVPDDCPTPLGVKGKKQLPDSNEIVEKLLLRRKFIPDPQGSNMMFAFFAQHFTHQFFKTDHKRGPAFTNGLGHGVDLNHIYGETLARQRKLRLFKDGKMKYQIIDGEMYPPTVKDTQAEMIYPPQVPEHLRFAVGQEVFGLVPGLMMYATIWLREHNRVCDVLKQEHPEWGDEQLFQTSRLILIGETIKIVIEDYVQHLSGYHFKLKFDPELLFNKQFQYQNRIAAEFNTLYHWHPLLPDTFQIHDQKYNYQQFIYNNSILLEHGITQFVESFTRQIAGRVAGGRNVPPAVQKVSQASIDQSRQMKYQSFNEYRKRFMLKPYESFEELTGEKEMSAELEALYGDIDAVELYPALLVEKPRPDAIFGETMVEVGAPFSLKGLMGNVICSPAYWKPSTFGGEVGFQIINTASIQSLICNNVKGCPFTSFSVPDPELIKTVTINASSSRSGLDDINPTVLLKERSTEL

Water solubility = assay type: physicochemical
6 CYP450 = assay: Inhibition of 6 CYP450; assay type: in vitro ADME
[6] = test system: TNFα in human whole blood; assay: TNFα inhibition, human whole blood assay (h-WBA / HWB); assay type: cell-based
Rat PK = assay type: in vivo
JNK = JNK inhibition; assay type: biochemical; conditions: read-out: inhibitor of JNK, IC50

SMILES: COc1ccc(-n2nc(CCC(=O)N(C)O)cc2-c2ccc(Cl)cc2)cc1 [Tepoxalin, reference compound]
- inhibition at 1 µM [1]: 77%
- inhibition at 10 µM [1]: 90%
- inhibition at 10 µM [2]: 100%

SMILES: O=C(O)c1cc(O)c2c(c1)C(=O)c1cccc(O)c1C2=O [Rhein, reference compound]
- cytotoxicity, LDH (in words) [3]: tolerant

- IC50 (p38α MAP kinase (h-p38α)): 0.02 µM
- IC50 (COX1): > 10 µM
- Kd (p38a MAP kinase): 0.009 µM
- IC50 ([5]; Homo sapiens, PBMC): 0.004 µM
- IC50 (COX2): > 10 µM
- pH at which soluble (Water solubility): < 2
- water solubility (in words) (Water solubility): poor water solubility
- solubility in 0.1 M HCl (in words) (Water solubility; 0.1 M HCl): soluble in 0.1 M HCl
SMILES: OCCC#Cc1nc(-c2ccc(F)cc2)c(-c2ccncc2)n1CCCc1ccccc1 [JNJ 3026582 (RWJ 67657), 4-[4-(4-fluorophenyl)-1-(3-phenylpropyl)-5-(4-pyridinyl)-1H-imidazol-2-yl]-3-butyn-1-ol]
- inhibition at 1 µM [1]: 33%
- inhibition at 10 µM [1]: 90%
- effect on PGE2 synthesis (in words) [1]: dose-dependently inhibited
- gene expression of Agg and Col 2 (in words) [4]: restored
- inhibition at 10 µM [2]: 66%
- effect on NO production (in words) [2]: dose-dependently inhibited

- IC50 (6 CYP450): > 1 µM
- IC50 (6 CYP450; human, Table 2): > 1 µM
- EC50 ([6]; Homo sapiens, 10× diluted, read-out: inhibits TNFα h-WBA (EC50)): 1.6 µM
- EC50 ([6]; Homo sapiens, Table 2, read-out: TNFα Inhibition h-WBA (EC50)): 1.6 µM
- half-life (Rat PK; in vivo, female rat, read-out: Rat (F) PK, t1/2 (converted)): 60 min
- bioavailability (Rat PK; in vivo, male rat, read-out: Rat (M) PK, F %): 15%
- half-life (Rat PK; in vivo, male rat, read-out: Rat (M) PK, t1/2 (converted)): 30 min
SMILES: C[C@@H]1CN(Cc2ccc(F)cc2)[C@@H](C)CN1C(=O)c1cc2c(C(=O)C(=O)N(C)C)cn(C)c2cc1Cl [SCIO-469 (SD 469)]
- effect on PGE2 synthesis (in words) [1]: inhibited
- effect on NO production (in words) [2]: inhibited

SMILES: CC(=O)Oc1cccc2c1C(=O)c1c(OC(C)=O)cc(C(=O)O)cc1C2=O [Diacerein, reference compound]
- cytotoxicity, LDH (in words) [3]: tolerant

SMILES: CO[C@H]1C[C@@H]2CC[C@@H](C)[C@@](O)(O2)C(=O)C(=O)N2CCCC[C@H]2C(=O)O[C@H]([C@H](C)C[C@@H]2CC[C@@H](O)[C@H](OC)C2)CC(=O)[C@H](C)/C=C(\C)[C@@H](O)[C@@H](OC)C(=O)[C@H](C)C[C@H](C)/C=C/C=C/C=C/1C [Rapamycin, reference compound]
- cytotoxicity, LDH (in words) [3]: little cytotoxicity

- IC50 ([6]; Homo sapiens, read-out: inhibitor of TNF human whole blood (HWB), IC50): 0.005 µM
- IC50 (p38α MAP kinase (h-p38α)): 0.001 µM
- IC50 (COX1): > 10 µM
- IC50 (COX2): > 10 µM
- water solubility (in words) (Water solubility): poor water solubility
- solubility (Water solubility; water (aqueous, simulated gastric fluid), at pH 2, read-out: solubility): > 1 mg/mL
- IC50 (JNK): 0.012 µM
SMILES: C[C@H](Nc1nccc(-c2c(-c3ccc(F)cc3)nc3nc(N)ccn23)n1)c1ccccc1 [JNJ 7583979 (RWJ 351958)]

SMILES: C[C@@H]1CN(Cc2ccc(F)cc2)[C@@H](C)CN1C(=O)c1cc2cc(C(=O)C(=O)N(C)C)[nH]c2cc1Cl [SCIO-282 (SD 282)]
- effect on PGE2 synthesis (in words) [1]: dose-dependently inhibited
- EC50 ([6]; 10× diluted, read-out: inhibits TNFα h-WBA (EC50)): 0.07 µM
- water solubility (in words) (Water solubility): limited water solubility
- Rat (F) PK, F % (Rat PK; female rat): 46%
- effect on NO production (in words) [2]: dose-dependently inhibited

SMILES: CC(=O)N1CCN(c2c(-c3ccncc3)c(-c3ccc(F)cc3)c(C#N)n2C)CC1 [JNJ 17089540 (RWJ 669307)]
- effect on PGE2 synthesis (in words) [1]: dose-dependently inhibited
- IC50 (p38α MAP kinase (h-p38α)): 2 µM
- IC50 (COX1): > 10 µM
- IC50 [5]: 0.22 µM
- IC50 (COX2): > 10 µM
- water solubility (Water solubility; of HCl salt): > 100 mg/mL
- effect on NO production (in words) [2]: dose-dependently inhibited

From patent US20090162351A1, “Transdiscal administration of inhibitors of p38 MAP kinase” (DePuy Spine, Inc., priority 2007, published 2009)
